This is an account of results in patent US20250188057A1, “NON-AROMATIC CYCLIC-PYRIMIDINE ANALOGS AS GLUCOSYLCERAMIDE SYNTHASE INHIBITORS” (Merck Sharp & Dohme LLC, priority 2022, published 2025).

Chain of glucosylceramide synthase (GCS) (Q16739 whole entry): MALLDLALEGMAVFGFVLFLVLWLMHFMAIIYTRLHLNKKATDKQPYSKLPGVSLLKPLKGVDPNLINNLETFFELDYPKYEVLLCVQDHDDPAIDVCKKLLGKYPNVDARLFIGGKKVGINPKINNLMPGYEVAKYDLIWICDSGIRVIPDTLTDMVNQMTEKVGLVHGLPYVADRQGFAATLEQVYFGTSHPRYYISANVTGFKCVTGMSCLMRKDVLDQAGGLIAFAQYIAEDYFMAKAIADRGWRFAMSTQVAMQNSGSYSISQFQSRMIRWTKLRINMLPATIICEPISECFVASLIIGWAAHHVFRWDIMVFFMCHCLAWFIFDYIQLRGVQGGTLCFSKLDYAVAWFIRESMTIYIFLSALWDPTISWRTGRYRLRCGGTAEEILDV

The assay has as its target glucosylceramide synthase (GCS) (Homo sapiens (Human), UniProt Q16739). In words: UDP-Glo glucosylceramide synthase biochemical assay. Conditions: endogenous GCS in Golgi preparations isolated from human A375 malignant melanoma skin cells; UDP detection by luminescence. From the text:
A UDP-Glo™ glucosylceramide synthase biochemical assay was utilized to evaluate the effect of test compounds on the activity of endogenous levels of GCS enzyme contained within Golgi preparations isolated from human A375 malignant melanoma skin cells. The UDP-Glo™ glucosylceramide synthase assay uses UDP-Glucose as a nucleotide-glycosyl donor and ceramide as substrate acceptor molecules. In the reaction, glucosylceramide synthase (GCS) transfers glucose from UDP-Glucose to ceramide. Glucosylceramide and UDP are released as products.
Using Promega's UDP-Glo™ Glycosyltransferase assay kit (Promega Corporation, Madison, WI, USA (Promega)), GCS activity was indirectly measured by detecting the amount of UDP produced. An aliquot of GCS enzyme (1.5 μg crude golgi preparation, total protein) and titrated test compound were aliquoted to each well and incubated for 30 minutes at room temperature. […] An equivalent volume of substrate mixture was then added to each well. Following a 20 h incubation at room temperature to allow for GCS turnover of substrate, an equal volume of UDP detection reagent (Promega) was added to each well and incubated for an additional 75 minutes at room temperature to simultaneously convert the accumulated UDP product into ATP and generate light in a luciferase reaction. The generated light was detected using a luminometer. […] luminescence values (RLUs) were normalized to mean “min” and “max” effects, as determined on each plate. “Min” was defined as the mean of the values of the wells treated with vehicle (DMSO) and which represent 0% inhibition; “max” was defined as the mean of the values of the wells treated with a reference inhibitor and which represent the 100% effect. Values for % Emax and EC50 were determined by best-fitting the normalized data to a curve in Activity Base along a four-parameter logistic nonlinear regression (4PL) model (based on the Levenberg-Marquardt algorithm and defined by the equation below): […]
where: n is 4PMin (bottom of the curve); m is 4PMax (top of the curve); i is IP (inflection point of curve); and p is slope. See Levenberg, K., “A Method for the Solution of Certain Problems in Least Squares”, Quart. Appl. Math. 2, (1944), pp 164-168 and Marquardt, D., “An Algorithm for Least Squares Estimation on Nonlinear Parameters”, SIAM J. Appl. Math 11, (1963) pp 431-441.
Turning to `Cc1cc(N2CC[C@H](COc3nc(C4CC4)ncc3C#N)C2)ncc1F` [Compound 30, (S)-2-cyclopropyl-4-((1-(5-fluoro-4-methylpyridin-2-yl)pyrrolidin-3-yl)methoxy)pyrimidine-5-carbonitrile], half-maximal inhibition (IC50) was put at 1.24 µM.
Take `N#Cc1cnc(C2CC2)nc1OC[C@H]1CCN(c2ccc(-n3ccnc3)cc2)C1` [Compound 31, (S)-4-((1-(4-(1H-imidazol-1-yl)phenyl)pyrrolidin-3-yl)methoxy)-2-cyclopropylpyrimidine-5-carbonitrile]: the IC50 – broadly, the midpoint of a concentration-inhibition curve – was 0.028 µM. This IC50 is about 44-fold lower than that of the compound before.
Then `CC(F)(F)c1ccnc(N2CC[C@H](COc3nc(C4CC4)ncc3C#N)C2)c1` [Compound 32, (S)-2-cyclopropyl-4-((1-(4-(1,1-difluoroethyl)pyridin-2-yl)pyrrolidin-3-yl)methoxy)pyrimidine-5-carbonitrile], with 3.29 µM; and `N#Cc1cnc(C2CC2)nc1OC[C@H]1CCN(c2cccc3cnccc23)C1` [Compound 33, (S)-2-cyclopropyl-4-((1-(isoquinolin-5-yl)pyrrolidin-3-yl)methoxy)pyrimidine-5-carbonitrile], with 1.4 µM; and `N#Cc1cnc(C2CC2)nc1OC[C@H]1CCN(c2cccc3ncccc23)C1` [Compound 34, (S)-2-cyclopropyl-4-((1-(quinolin-5-yl)pyrrolidin-3-yl)methoxy)pyrimidine-5-carbonitrile], with 2.05 µM.
Take `N#Cc1ccc(N2CC[C@H](COc3nc(C4CC4)ncc3C#N)C2)cc1F` [Compound 35, (S)-4-((1-(4-cyano-3-fluorophenyl)pyrrolidin-3-yl)methoxy)-2-cyclopropylpyrimidine-5-carbonitirle]: the half-inhibitory concentration (IC50) turned out to be 0.458 µM.
Then `N#Cc1cnc(C2CC2)nc1OC[C@H]1CCN(c2cc(F)ncc2Cl)C1` [Compound 36, (S)-4-((1-(5-chloro-2-fluoropyridin-4-yl)pyrrolidin-3-yl)methoxy)-2-cyclopropylpyrimidine-5-carbonitrile], with 2.57 µM; and `N#Cc1cnc(C2CC2)nc1OC[C@@H]1CCN(c2cc(F)ncc2Cl)C1` [Compound 37, (R)-4-((1-(5-chloro-2-fluoropyridin-4-yl)pyrrolidin-3-yl)methoxy)-2 cyclopropylpyrimidine-5-carbonitrile], with 3.51 µM.
Turning to `COc1cc(N2CC[C@@H](COc3nc(C4CC4)ncc3C#N)C2)c(F)cn1` [Compound 38, (R)-2-cyclopropyl-4-((1-(5-fluoro-2-methoxypyridin-4-yl)pyrrolidin-3-yl)methoxy)pyrimidine-5-carbonitrile], it took 2.94 µM to reach half-maximal inhibition (IC50).
To `N#Cc1cnc(C2CC2)nc1OC[C@H]1CCN(c2csc3c(Cl)ncnc23)C1` [Compound 39, (S)-4-((1-(4-chlorothieno[3,2-d]pyrimidin-7-yl)pyrrolidin-3-yl)methoxy)-2-cyclopropylpyrimidine-5-carbonitrile] belongs 3.99 µM.
Compound `Cc1nc(-c2ccc(N3CC[C@H](COc4nc(C5CC5)ncc4C#N)C3)cc2)co1` [Compound 40, (S)-2-cyclopropyl-4-((1-(4-(2-methyloxazol-4-yl)phenyl)pyrrolidin-3-yl)methoxy)pyrimidine-5-carbonitrile] registered an IC50 of 0.029 µM. This IC50 lies about 140-fold lower than the previous one.
Then `N#Cc1cnc(C2CC2)nc1OC[C@H]1CCN(c2ncc(C(F)(F)F)cn2)C1` [Compound 42, (S)-2-cyclopropyl-4-((1-(5-(trifluoromethyl)pyrimidin-2-yl)pyrrolidin-3-yl)methoxy)pyrimidine-5-carbonitrile], with 0.061 µM; and `N#Cc1cnc(C2CC2)nc1OC[C@H]1CCN(c2ccc(C(F)(F)F)cn2)C1` [Compound 43, (S)-2-cyclopropyl-4-((1-(5-(trifluoromethyl)pyridin-2-yl)pyrrolidin-3-yl)methoxy)pyrimidine-5-carbonitrile], with 0.04 µM.
`N#Cc1cnc(C2CC2)nc1OC[C@H]1CCN(c2ccc(C(F)(F)F)nc2)C1` [Compound 44, (S)-2-cyclopropyl-4-((1-(6-(trifluoromethyl)pyridin-3-yl)pyrrolidin-3-yl)methoxy)pyrimidine-5-carbonitrile] gave an IC50 of 0.14 µM.
Regarding `N#Cc1cnc(C2CC2)nc1OC[C@@H]1CCN(c2ccc(C(F)(F)F)nc2)C1` [Compound 45, (R)-2-cyclopropyl-4-((1-(6-(trifluoromethyl)pyridin-3-yl)pyrrolidin-3-yl)methoxy)pyrimidine-5-carbonitrile], the IC50 was 0.255 µM. Against the preceding compound, the IC50 is about 1.8-fold higher.
Then `N#Cc1cnc(C2CC2)nc1OC[C@H]1CCN(c2cc(C(F)(F)F)ccn2)C1` [Compound 46, (S)-2-cyclopropyl-4-((1-(4-(trifluoromethyl)pyridin-2-yl)pyrrolidin-3-yl)methoxy)pyrimdiine-5-carbonitrile], with 4.19 µM.
As to `N#Cc1cnc(C2CC2)nc1OC[C@H]1CCN(c2ccnc(OC3CC3)c2)C1` [Compound 47, (S)-4-((1-(2-cyclopropoxypyridin-4-yl)pyrrolidin-3-yl)methoxy)-2-cyclopropylpyrimidine-5-carbonitrile], the IC50 turned out to be 3.09 µM.
Take `N#Cc1cnc(C2CC2)nc1NC[C@H]1CCN(c2ccc(-n3cccn3)nc2)C1` [Compound 48, (R)-4-(((1-(6-(1H-pyrazol-1-yl)pyridin-3-yl)pyrrolidin-3-yl)methyl)amino)-2-cyclopropylpyimidine-5-carbonitrile]: inhibition was half-maximal at 0.969 µM (IC50). Against the preceding compound, the IC50 is about 3.2-fold lower.
`CN(C[C@H]1CCN(c2ccc(-n3cccn3)nc2)C1)c1nc(C2CC2)ncc1C#N` [Compound 49, (S)-4-(((1-(6-(1H-pyrazol-1-yl)pyridin-3-yl)pyrrolidin-3-yl)methyl)(methyl)amino)-2-cyclopropylpyrimidine-5-carbonitrile] showed a half-inhibitory concentration (IC50) of 1.87 µM.
The compound `CC(Oc1nc(C2CC2)ncc1C#N)[C@H]1CCN(c2ncc(C(F)(F)F)cn2)C1` (stereo partly drawn) [Compound 50, 2-cyclopropyl-4-(1-((S)-1-(5-(trifluoromethyl)pyrimidin-2-yl)pyrrolidin-3-yl)ethoxy)pyrimidine-5-carbonitrile] showed an IC50 of 0.081 µM. Compared with the last compound, the IC50 is about 23-fold lower.
Take `N#Cc1cnc(C2CC2)nc1OCC12CC1CN(c1ncc(C(F)(F)F)cn1)C2` (stereo not shown) [Compound 51, 2-cyclopropyl-4-((3-(5-(trifluoromethyl)pyrimidin-2-yl)-3-azabicyclo[3.1.0]hexan-1-yl)methoxy)pyrimidine-5-carbonitrile]: the IC50 is 0.09 µM. The IC50 values of the last two compounds are within 1.5-fold of each other.
Compound `CC1(COc2nc(C3CC3)ncc2C#N)CCN(c2ncc(C(F)(F)F)cn2)C1` (stereo not shown) [Compound 52, 2-cyclopropyl-4-((3-methyl-1-(5-(trifluoromethyl)pyrimidin-2-yl)pyrrolidin-3-yl)methoxy)pyrimidine-5-carbonitrile] gave an IC50 of 0.762 µM.
Turning to `CC1CN(c2ncc(C(F)(F)F)cn2)CC1COc1nc(C2CC2)ncc1C#N` (stereo not shown) [Compound 53, 2-cyclopropyl-4-((4-methyl-1-(5-(trifluoromethyl)pyrimidin-2-yl)pyrrolidin-3-yl)methoxy)pyrimidine-5-carbonitrile], the midpoint of inhibition, the IC50, lay at 0.148 µM.
`N#Cc1cnc(C2CC2)nc1OCC12CC(C1)N(c1ncc(C(F)(F)F)cn1)C2` [Compound 54, 2-cyclopropyl-4-((2-(5-(trifluoromethyl)pyrimidin-2-yl)-2-azabicyclo[2.1.1]hexan-4-yl)methoxy)pyrimidine-5-carbonitrile]: the midpoint of inhibition, the IC50, lay at 0.107 µM. The IC50 values of the last two compounds are within 1.5-fold of each other.
In turn, `N#Cc1cnc(C2CC2)nc1OC[C@H]1CCN(c2ccc(-n3cccn3)nc2)C1` [Compound 55, (S)-4-((1-(6-(1H-pyrazol-1-yl)pyridin-3-yl)pyrrolidin-3-yl)methoxy)-2-cyclopropylpyrimidine-5-carbonitrile] gave an IC50 of 0.078 µM.
